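Five concentrations, 48 hours, 96-well plates. GI50 marks 50% less growth. The concentration for full growth arrest is given as TGI.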
Assays:
Experiment in all cases: inhibition of tumour cell growth, NCI panel, 48 h
NCI-H460 lung = tested on: NCI-H460 lung
HOP-62 NSCLC = tested on: HOP-62 NSCLC
SK-MEL-2 melanoma = tested on: SK-MEL-2 melanoma
HCT-116 colon = tested on: HCT-116 colon
HCC-2998 colon = tested on: HCC-2998 colon
LOX IMVI melanoma = tested on: LOX IMVI melanoma
HS 578T breast = tested on: HS 578T breast
OVCAR-3 ovarian = tested on: OVCAR-3 ovarian
M14 melanoma = tested on: M14 melanoma
NCI-H522 lung = tested on: NCI-H522 lung

CNc1nc(-c2ccc3c(N)n[nH]c3c2)cc(N2C[C@@H](C(=O)NC3CCCCC3)CC[C@H]2C)n1
GI50 (NCI-H460 lung): 1.5 µM
TGI (NCI-H460 lung): 15.7 µM
GI50 (HOP-62 NSCLC): 3.26 µM
TGI (HOP-62 NSCLC): 17.9 µM
GI50 (SK-MEL-2 melanoma): 1.18 µM
TGI (SK-MEL-2 melanoma): 8.13 µM
GI50 (HCT-116 colon): 4.4 µM
TGI (HCT-116 colon): 18.8 µM
GI50 (HCC-2998 colon): 8.53 µM
TGI (HCC-2998 colon): 21.7 µM
GI50 (LOX IMVI melanoma): 3.8 µM
TGI (LOX IMVI melanoma): 19.4 µM
GI50 (HS 578T breast): 1.06 µM
TGI (HS 578T breast): 8.86 µM
GI50 (OVCAR-3 ovarian): 2.16 µM
TGI (OVCAR-3 ovarian): 15.6 µM
GI50 (M14 melanoma): 3.02 µM
TGI (M14 melanoma): 20.1 µM
GI50 (NCI-H522 lung): 4.52 µM
TGI (NCI-H522 lung): 18.3 µM

COc1cc2c(=O)n(CC3CCCCC3)c3c4cc[nH]c4ncc3c2cc1OC
GI50 (NCI-H460 lung): 2.25 µM
TGI (NCI-H460 lung): 9.41 µM
GI50 (HOP-62 NSCLC): 2.54 µM
TGI (HOP-62 NSCLC): 11.2 µM
GI50 (SK-MEL-2 melanoma): 8.69 µM
TGI (SK-MEL-2 melanoma): 41.7 µM
GI50 (HCT-116 colon): 1.01 µM
TGI (HCT-116 colon): 12.3 µM
GI50 (HCC-2998 colon): 18.7 µM
TGI (HCC-2998 colon): > 50 µM
GI50 (LOX IMVI melanoma): 2.3 µM
TGI (LOX IMVI melanoma): 14.3 µM
GI50 (HS 578T breast): 0.719 µM
TGI (HS 578T breast): 4.09 µM
GI50 (OVCAR-3 ovarian): 6.66 µM
TGI (OVCAR-3 ovarian): 18 µM
GI50 (M14 melanoma): 4.3 µM
TGI (M14 melanoma): > 50 µM
GI50 (NCI-H522 lung): 1.34 µM
TGI (NCI-H522 lung): 18.3 µM

COc1ccc(C2C3=C(COC3=O)N(CCO)c3cc4c(cc32)CCC4)cc1 (stereo not given)
GI50 (NCI-H460 lung): 2.37 µM
TGI (NCI-H460 lung): 26.9 µM
GI50 (HOP-62 NSCLC): 9.02 µM
TGI (HOP-62 NSCLC): > 50 µM
GI50 (SK-MEL-2 melanoma): 1.45 µM
TGI (SK-MEL-2 melanoma): 4.74 µM
GI50 (HCT-116 colon): 2.12 µM
TGI (HCT-116 colon): > 50 µM
GI50 (HCC-2998 colon): 5.76 µM
TGI (HCC-2998 colon): 25.8 µM
GI50 (LOX IMVI melanoma): 3.1 µM
TGI (LOX IMVI melanoma): > 50 µM
GI50 (HS 578T breast): 4.11 µM
TGI (HS 578T breast): 42 µM
GI50 (OVCAR-3 ovarian): 1.07 µM
TGI (OVCAR-3 ovarian): 2.97 µM
GI50 (M14 melanoma): 2.32 µM
TGI (M14 melanoma): 21.1 µM
GI50 (NCI-H522 lung): 0.808 µM
TGI (NCI-H522 lung): 3.73 µM

COC(=O)[C@@H](C)C[C@H](Cc1ccccc1)NC(=O)c1csc([C@@H](C[C@H](C(C)C)N(C)C(=O)[C@@H](NC(=O)[C@H]2CCCCN2C)C(C(F)(F)F)C(F)(F)F)OC(C)=O)n1
GI50 (NCI-H460 lung): 0.0576 µM
TGI (NCI-H460 lung): > 16.7 µM
GI50 (HOP-62 NSCLC): 0.0651 µM
TGI (HOP-62 NSCLC): > 16.7 µM
GI50 (SK-MEL-2 melanoma): 0.0777 µM
TGI (SK-MEL-2 melanoma): > 16.7 µM
GI50 (HCT-116 colon): 0.057 µM
TGI (HCT-116 colon): > 16.7 µM
GI50 (HCC-2998 colon): 0.0747 µM
TGI (HCC-2998 colon): > 16.7 µM
GI50 (LOX IMVI melanoma): 0.053 µM
TGI (LOX IMVI melanoma): > 16.7 µM
GI50 (HS 578T breast): 0.047 µM
TGI (HS 578T breast): 15.4 µM
GI50 (OVCAR-3 ovarian): 0.021 µM
TGI (OVCAR-3 ovarian): 0.253 µM
GI50 (M14 melanoma): 0.0333 µM
TGI (M14 melanoma): 0.115 µM
GI50 (NCI-H522 lung): 0.0125 µM
TGI (NCI-H522 lung): 0.264 µM

COc1ccc(/C=C/C(=O)c2ccc(Nc3nc(Nc4ccc(F)cc4)nc(Nc4ccc(F)cc4)n3)cc2)cc1
GI50 (NCI-H460 lung): 13 µM
TGI (NCI-H460 lung): 72.4 µM
GI50 (HOP-62 NSCLC): 13.1 µM
TGI (HOP-62 NSCLC): 30 µM
GI50 (SK-MEL-2 melanoma): 14.1 µM
TGI (SK-MEL-2 melanoma): 34.6 µM
GI50 (HCT-116 colon): 4.82 µM
TGI (HCT-116 colon): 18.3 µM
GI50 (HCC-2998 colon): 14.1 µM
TGI (HCC-2998 colon): 53.8 µM
GI50 (LOX IMVI melanoma): 21.7 µM
TGI (LOX IMVI melanoma): 67.7 µM
GI50 (HS 578T breast): 14.4 µM
TGI (HS 578T breast): 59.6 µM
GI50 (OVCAR-3 ovarian): 26.7 µM
TGI (OVCAR-3 ovarian): > 100 µM
GI50 (M14 melanoma): 12.3 µM
TGI (M14 melanoma): 36.7 µM
GI50 (NCI-H522 lung): 8.89 µM
TGI (NCI-H522 lung): 24.9 µM

NC1=C(O)C(=O)C(c2c[nH]c3ccc(OCc4ccccc4)cc23)O1 (stereo not given)
TGI (NCI-H460 lung): > 100 µM
TGI (HOP-62 NSCLC): > 100 µM
TGI (SK-MEL-2 melanoma): > 100 µM
TGI (HCT-116 colon): > 100 µM
TGI (HCC-2998 colon): > 76.3 µM
TGI (LOX IMVI melanoma): > 100 µM
TGI (HS 578T breast): > 100 µM
TGI (OVCAR-3 ovarian): > 100 µM
TGI (M14 melanoma): > 100 µM
TGI (NCI-H522 lung): > 100 µM

Cn1cccc1-c1cc(-c2ccccc2)nc(N)c1C#N
GI50 (NCI-H460 lung): > 100 µM
TGI (NCI-H460 lung): > 100 µM
GI50 (HOP-62 NSCLC): 84.6 µM
TGI (HOP-62 NSCLC): > 100 µM
GI50 (SK-MEL-2 melanoma): > 100 µM
TGI (SK-MEL-2 melanoma): > 100 µM
GI50 (HCT-116 colon): > 100 µM
TGI (HCT-116 colon): > 100 µM
GI50 (HCC-2998 colon): > 100 µM
TGI (HCC-2998 colon): > 100 µM
GI50 (LOX IMVI melanoma): > 100 µM
TGI (LOX IMVI melanoma): > 100 µM
GI50 (HS 578T breast): > 28.8 µM
TGI (HS 578T breast): > 100 µM
GI50 (OVCAR-3 ovarian): > 67.7 µM
TGI (OVCAR-3 ovarian): > 100 µM
GI50 (M14 melanoma): > 100 µM
TGI (M14 melanoma): > 100 µM
GI50 (NCI-H522 lung): > 78.2 µM
TGI (NCI-H522 lung): > 100 µM

CCOc1ccccc1N=Cc1c2ccccc2cc2ccccc12
TGI (NCI-H460 lung): > 100 µM
TGI (HOP-62 NSCLC): > 84.3 µM
TGI (SK-MEL-2 melanoma): 53.4 µM
TGI (HCT-116 colon): 41.5 µM
TGI (HCC-2998 colon): 44.3 µM
TGI (LOX IMVI melanoma): 38.2 µM
TGI (HS 578T breast): > 53.9 µM
TGI (OVCAR-3 ovarian): > 67.6 µM
TGI (M14 melanoma): 41.1 µM

CCCCCCCCc1cc(O)ccc1O
GI50 (NCI-H460 lung): 17.3 µM
TGI (NCI-H460 lung): 33.1 µM
GI50 (HOP-62 NSCLC): 25.5 µM
TGI (HOP-62 NSCLC): 60.6 µM
GI50 (SK-MEL-2 melanoma): 13 µM
TGI (SK-MEL-2 melanoma): 30.8 µM
GI50 (HCT-116 colon): 14.7 µM
TGI (HCT-116 colon): 27.9 µM
GI50 (HCC-2998 colon): 18.4 µM
TGI (HCC-2998 colon): 34.4 µM
GI50 (LOX IMVI melanoma): 12.8 µM
TGI (LOX IMVI melanoma): 25.8 µM
GI50 (HS 578T breast): 15.4 µM
TGI (HS 578T breast): 53.5 µM
GI50 (OVCAR-3 ovarian): 15.4 µM
TGI (OVCAR-3 ovarian): 30 µM
GI50 (NCI-H522 lung): 5.65 µM
TGI (NCI-H522 lung): 25.3 µM

Cc1cn2cc(-c3ccc4c(c3)CC(=O)N4)nc2s1
GI50 (HOP-62 NSCLC): 64.7 µM
TGI (HOP-62 NSCLC): > 100 µM
GI50 (SK-MEL-2 melanoma): > 100 µM
TGI (SK-MEL-2 melanoma): > 100 µM
GI50 (HCT-116 colon): 70.1 µM
TGI (HCT-116 colon): > 100 µM
GI50 (HCC-2998 colon): 46.2 µM
TGI (HCC-2998 colon): > 100 µM
GI50 (LOX IMVI melanoma): 20.5 µM
TGI (LOX IMVI melanoma): > 100 µM
GI50 (HS 578T breast): > 100 µM
TGI (HS 578T breast): > 100 µM
GI50 (OVCAR-3 ovarian): > 100 µM
TGI (OVCAR-3 ovarian): > 100 µM
GI50 (M14 melanoma): > 100 µM
TGI (M14 melanoma): > 100 µM
GI50 (NCI-H522 lung): 99.6 µM
TGI (NCI-H522 lung): > 100 µM

Source: PubChem BioAssay (NCI)
